According to patent publication US8518952B2, “6 substituted 2-heterocyclylamino pyrazine compounds as CHK-1 inhibitors” (Pfizer Inc., priority 2008, dated 2013):

Key:
Mia Paca-2 cells = assay: Histone H3 (Ser10) phosphorylation ELISA, abrogation of camptothecin-induced G2 arrest (CHK-1 cellular assay); type: cell-based; conditions: Homo sapiens; Mia Paca-2 cells (entries marked *); camptothecin 8 hrs, then compound with nocodozole 16 hours
Method: The Histone H3 phosphorylation ELISA assay detects cells entering mitosis and represents the primary in vitro cell-based assay used to measure the cellular potency of compounds in abrogating the G2 check point induced by DNA damage in HeLa cells or MiaPaCa cells. The candidate substances were assayed for potency in their ability to inhibit camptothecin-induced G2 arrest, as measured by an increase in Histone H3 phosphorylation on Ser10, a marker of entry into mitosis.
The PathScan Phospho-Histone H3 (Ser10) Sandwich ELISA kit was used (Cell Signaling, #7155) and the assay was performed according to manufacturer recommendations. Tissue culture plates were seeded with HeLa cells or MiaPaCa Cells and allowed to attach overnight. The cells were then treated with camptothecin to induce DNA damage for 8 hrs. Candidate substances or diluent were then added in the presence of nocodozole for 16 hours. Cells were then lysed with buffer from Assay Designs (#80-1114) supplemented with protease inhibitors and frozen overnight. The fresh whole cell lysates were then thawed and added to the ELISA plate with shaking for 3 hours. Between all subsequent steps plates were washed 4 times with PBST. Biotinylated phospho Histone H3 (ser10) detection antibody was added for 1 hour, followed by addition of horseradish peroxidase-linked streptavidin secondary antibody for 1 hour. Color development of the antibody was performed with addition of TMB substrate and incubation for 2 minutes on a plate shaker. Stop solution was added and plates were read with absorbance at 450 nm on a spectrophotometer. EC50 values were calculated by sigmoid curve fitting using a four-parameter analysis.
Under the “Ki” column, data entries in the format of “%” are percent inhibition data where no Ki data is available. Data entry under the “EC50” column with an * are data obtained using Mia Paca-2 cells rather than HeLa cells. Data is not available where noted as n/a.

CHK1 (kinase domain) = target: T1, CHK1 (kinase domain) (Homo sapiens, UniProt O14757); assay: CHK1 Ki determination, spectrophotometric coupled (pyruvate kinase/lactate dehydrogenase) assay; type: biochemical; conditions: CHK-1 kinase domain; for Ki: 150 uM ATP, 125 uM Syntide 2; for percent inhibition (where no Ki data is available): inhibitor concentration not given
T1 construct: a solution containing 1 nM of CHK1 (kinase domain)
T1 sequence (O14757 9-265 limits assumed): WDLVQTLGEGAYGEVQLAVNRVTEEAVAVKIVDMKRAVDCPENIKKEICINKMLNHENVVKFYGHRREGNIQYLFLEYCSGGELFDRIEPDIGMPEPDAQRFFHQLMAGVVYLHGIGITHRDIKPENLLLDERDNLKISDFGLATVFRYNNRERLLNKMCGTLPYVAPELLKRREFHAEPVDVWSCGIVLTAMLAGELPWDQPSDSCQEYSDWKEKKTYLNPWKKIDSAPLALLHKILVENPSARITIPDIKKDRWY
Summary of the method: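 The CHK1 kinase domain was pre-incubated with compound for 15 min, and the reaction was started with 125 uM Syntide 2 and 150 uM ATP. ADP formation was coupled through pyruvate kinase/lactate dehydrogenase to NADH oxidation, read as the A340 decrease. Kiapp was fitted with a tight-binding equation that accounts for enzyme concentration and ATP Km; some entries are % inhibition.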

HeLa cells = assay: Histone H3 (Ser10) phosphorylation ELISA, abrogation of camptothecin-induced G2 arrest (CHK-1 cellular assay); type: cell-based; conditions: Homo sapiens, HeLa, HeLa cells; camptothecin 8 hrs, then compound with nocodozole 16 hours; read-out: EC50
Summary of the method: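 HeLa cells, or MiaPaCa-2 where marked, received camptothecin for 8 h, then compound with nocodazole for 16 h. Ser10-phosphorylated histone H3 in lysates was measured by ELISA with a biotinylated antibody, streptavidin-HRP and TMB. EC50 came from four-parameter sigmoid fits.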

| EC50 (Mia Paca-2 cells) [nM] | Ki (CHK1 (kinase domain)) [nM] | EC50 (HeLa cells) [nM] | percent inhibition (where no Ki data is available) (CHK1 (kinase domain)) [%^] | Compound |
| --- | --- | --- | --- | --- |
| 92.8 | 7.74 | – | – | c1cn2c(-c3cncc(N[C@@H]4CCCNC4)n3)cnc2cn1 [Example 4, 6-Imidazo[1,2-a]pyrazin-3-yl-N-[(3R)-piperidin-3-yl]pyrazin-2-amine] |
| 321 | – | – | – | N#Cc1ccn2c(-c3cncc(N[C@@H]4C[C@@H]5CN[C@H]4C5)n3)cnc2c1 [Example 162, 3-{6-[(1S,4R,6R)-2-azabicyclo[2.2.1]hept-6-ylamino]pyrazin-2-yl}imidazo[1,2-a]pyridine-7-carbonitrile] |
| – | 5.4 | 66.4 | – | CCc1cn2c(-c3cncc(N[C@H]4CNC[C@H]4CF)n3)cnc2s1 [Example 185, 6-(2-ethylimidazo[2,1-b][1,3]thiazol-5-yl)-N-[(3R,4R)-4-(fluoromethyl)pyrrolidin-3-yl]pyrazin-2-amine] |
| – | 24 | 664 | – | N#Cc1ccn2c(-c3cncc(N[C@@H]4CCNC4)n3)cnc2c1 [Example 186, 3-{6-[(3R)-pyrrolidin-3-ylamino]pyrazin-2-yl}imidazo[1,2-a]pyridine-7-carbonitrile] |
| – | 156 | 1320 | – | CO[C@@H]1CNC[C@@H]1Nc1cncc(-c2cnc3ccccn23)n1 [Example 190, 6-(imidazo[1,2-a]pyridin-3-yl)-N-[(3S,4R)-4-methoxypyrrolidin-3-yl]pyrazin-2-amine] |
| – | 4.7 | 5070 | – | C[C@@H]1CNC[C@@H]1Nc1cncc(-c2cnc3cc(C(N)=O)ccn23)n1 [Example 191, 3-(6-{[(3R,4R)-4-methylpyrrolidin-3-yl]amino}pyrazin-2-yl)imidazo[1,2-a]pyridine-7-carboxamide] |
| – | 26.5 | 102 | – | CCOC[C@@H]1C[C@@H](Nc2cncc(-c3cnc4ccccn34)n2)CN1 [Example 193, N-[(3R,5S)-5-(ethoxymethyl)pyrrolidin-3-yl]-6-(imidazo[1,2-a]pyridin-3-yl)pyrazin-2-amine] |
| – | 13.6 | 7.76 | – | CC(C)[C@@H]1CNC[C@@H]1Nc1cncc(-c2cnc3ccccn23)n1 [Example 194, 6-(imidazo[1,2-a]pyridin-3-yl)-N-[(3R,4R)-4-(propan-2-yl)pyrrolidin-3-yl]pyrazin-2-amine] |
| – | 73.4 | 78.5 | – | FC(F)(F)CO[C@@H]1CNC[C@@H]1Nc1cncc(-c2cnc3ccccn23)n1 [Example 195, 6-(imidazo[1,2-a]pyridin-3-yl)-N-[(3S,4R)-4-(2,2,2-trifluoroethoxy)pyrrolidin-3-yl]pyrazin-2-amine] |
| – | 32 | 16.8 | – | CC[C@@H]1CNC[C@@H]1Nc1cncc(-c2cnc3ccccn23)n1 [Example 196, N-[(3R,4R)-4-ethylpyrrolidin-3-yl]-6-(imidazo[1,2-a]pyridin-3-yl)pyrazin-2-amine] |
| – | 1.09 | 23.4 | – | Fc1ccc2c(-c3cncc(N[C@@H]4CCCNC4)n3)cnn2c1 [Example 198, 6-(6-fluoropyrazolo[1,5-a]pyridin-3-yl)-N-[(3R)-piperidin-3-yl]pyrazin-2-amine] |
| – | 4.88 | 48.9 | – | OC[C@@H]1CNC[C@@H]1Nc1cncc(-c2cnn3cc(Cl)ccc23)n1 [Example 201, [(3R,4R)-4-{[6-(6-chloropyrazolo[1,5-a]pyridin-3-yl)pyrazin-2-yl]amino}pyrrolidin-3-yl]methanol] |
| – | 18.4 | 19.4 | – | C[C@@H]1CNC[C@@H]1Nc1cncc(-c2cnn3cc(F)ccc23)n1 [Example 202, 6-(6-fluoropyrazolo[1,5-a]pyridin-3-yl)-N-[(3R,4R)-4-methylpyrrolidin-3-yl]pyrazin-2-amine] |
| – | 1.3 | 123 | – | C[C@@H]1CNC[C@@H]1Nc1cncc(-c2cnc3cc(-c4cnn(C)c4)ccn23)n1 [Example 209, 6-[7-(1-methyl-1H-pyrazol-4-yl)imidazo[1,2-a]pyridin-3-yl]-N-[(3R,4R)-4-methylpyrrolidin-3-yl]pyrazin-2-amine] |
| – | 3.58 | ≥ 10000 | – | CC(C)OCCOc1ccn2c(-c3cncc(N[C@@H]4CCNC4)n3)cnc2c1 [Example 213, 6-{7-[2-(propan-2-yloxy)ethoxy]imidazo[1,2-a]pyridin-3-yl}-N-[(3R)-pyrrolidin-3-yl]pyrazin-2-amine] |
| – | 6.78 | 35.8 | – | CC(C)Oc1ccc2c(c1)ncn2-c1cncc(N[C@@H]2CCCNC2)n1 [Example 215, N-[(3R)-piperidin-3-yl]-6-[5-(propan-2-yloxy)-1H-benzimidazol-1-yl]pyrazin-2-amine] |
| – | 15.5 | 35.8 | – | COc1ccc2ncn(-c3cncc(N[C@@H]4CCNC4)n3)c2c1 [Example 216, 6-(6-methoxy-1H-benzimidazol-1-yl)-N-[(3R)-pyrrolidin-3-yl]pyrazin-2-amine] |
| – | 5.12 | ≥ 10000 | – | COc1ccc2c(c1)ncn2-c1cncc(N[C@@H]2CCNC2)n1 [Example 218, 6-(5-methoxy-1H-benzimidazol-1-yl)-N-[(3R)-pyrrolidin-3-yl]pyrazin-2-amine] |
| – | – | 979 | 48.4 | CCOc1ccc2ncn(-c3cncc(N[C@@H]4CCNC4)n3)c2c1 [Example 219, 6-(6-ethoxy-1H-benzimidazol-1-yl)-N-[(3R)-pyrrolidin-3-yl]pyrazin-2-amine] |
| – | 3.34 | 370 | – | c1cc2c(cc1OCC1CC1)ncn2-c1cncc(N[C@@H]2CCNC2)n1 [Example 221, 6-[5-(cyclopropylmethoxy)-1H-benzimidazol-1-yl]-N-[(3R)-pyrrolidin-3-yl]pyrazin-2-amine] |
| – | – | ≥ 10000 | 42.5 | CC(C)Oc1ccc2c(c1)ncn2-c1cncc(N[C@@H]2CCNC2)n1 [Example 222, 6-[5-(propan-2-yloxy)-1H-benzimidazol-1-yl]-N-[(3R)-pyrrolidin-3-yl]pyrazin-2-amine] |
| – | 68.1 | 329 | – | Cc1ncc(-c2cnc3ccccn23)nc1N[C@@H]1CCNC1 [Example 223, 6-(imidazo[1,2-a]pyridin-3-yl)-3-methyl-N-[(3R)-pyrrolidin-3-yl]pyrazin-2-amine] |
| – | 2.39 | 30.3 | – | COc1ccc2c(c1)ncn2-c1cncc(N[C@@H]2CCCNC2)n1 [Example 224, 6-(5-methoxy-1H-benzimidazol-1-yl)-N-[(3R)-piperidin-3-yl]pyrazin-2-amine] |
| – | 35.3 | 229 | – | COC[C@@H]1C[C@@H](Nc2cncc(-c3cnc4ccc(Cl)cn34)n2)CN1 [Example 246, 6-(6-chloroimidazo[1,2-a]pyridin-3-yl)-N-[(3R,5S)-5-(methoxymethyl)pyrrolidin-3-yl]pyrazin-2-amine] |
| – | 45.3 | ≥ 10000 | – | FC1(F)CCNC[C@H]1Nc1cncc(-c2cnc3ccccn23)n1 [Example 248, N-[(3R)-4,4-difluoropiperidin-3-yl]-6-(imidazo[1,2-a]pyridin-3-yl)pyrazin-2-amine] |
| – | 4.5 | 32.2 | – | FC1(F)CCNC[C@@H]1Nc1cncc(-c2cnc3ccccn23)n1 [Example 249, N-[(3S)-4,4-difluoropiperidin-3-yl]-6-(imidazo[1,2-a]pyridin-3-yl)pyrazin-2-amine] |
| – | 56.4 | 303 | – | C[C@H]1NCCC[C@H]1Nc1cncc(-c2cnc3cc(C#N)ccn23)n1 [Example 262, 3-(6-{[(2R,3R)-2-methylpiperidin-3-yl]amino}pyrazin-2-yl)imidazo[1,2-a]pyridine-7-carbonitrile] |
| 10000 | – | – | – | N#Cc1ncc(N[C@@H]2CCNC2)nc1-c1cnc2ccccn12 [Example 267, 3-(imidazo[1,2-a]pyridin-3-yl)-5-[(3R)-pyrrolidin-3-ylamino]pyrazine-2-carbonitrile] |
| – | 334 | 4080 | – | Cc1ncc(N[C@@H]2CCNC2)nc1-c1cnc2ccccn12 [Example 296, 6-(imidazo[1,2-a]pyridin-3-yl)-5-methyl-N-[(3R)-pyrrolidin-3-yl]pyrazin-2-amine] |
